Patent US20130296311A1, “INHIBITORS OF HCV NS5A” (PRESIDIO PHARMACEUTICALS, INC., priority 2010, published 2013)

Tested on: HCV 1b_Huh-Luc/Neo-ET cell line persistently expressing a bicistronic genotype 1b replicon in Huh 7 cells
Experiment: HCV replicon assay (luciferase readout, 72 h)
Type: cell-based, HCV genotype 1b
Settings: Hepatitis C virus, Huh-7, 72 h, read-out: Inhibition of HCV genotype 1b
Procedure, shortened: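 EC50 values come from a four-parameter fit of luciferase signal as % of untreated control, repeated across several determinations. The signal is from the HCV 1b_Huh-Luc/Neo-ET replicon line, dosed in triplicate one day post-plating and incubated 72 h before Bright-Glo readout.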

**Q.** With `CC(C)[C@@H](NC(=O)C1CC1)C(=O)N1CCC[C@H]1c1ncc(-c2ccc(C#Cc3ccc(-c4cnc([C@@H]5CCCN5C(=O)[C@H](NC(=O)C5CC5)C(C)C)[nH]4)cc3)cc2)[nH]1` [Compound 155] as the compound, how does the EC50 read?
**A.** 1 to 9.9 nM

**Q.** For `C[C@@H](NC(=O)C1CC1)C(=O)N1CCC[C@H]1c1ncc(C#Cc2ccc(-c3cnc([C@@H]4CCCN4C(=O)[C@@H](C)NC(=O)C4CC4)[nH]3)cc2)[nH]1` [Compound 111], which EC50 is on record?
**A.** 1 to 9.9 nM

**Q.** For `COC(=O)N[C@H](C(=O)N(C)[C@@H](C)c1ncc(-c2ccc(C#Cc3ccc(-c4cnc([C@@H]5CCCN5C(=O)[C@@H](NC(=O)OC)C(C)C)[nH]4)cc3)cc2)[nH]1)C(C)C` [Compound 267], which EC50 is on record?
**A.** < 1 nM

**Q.** How did the EC50 turn out when `COC(=O)N[C@H](C(=O)N1CCC[C@H]1c1nc2ccc(C#Cc3ccc(-c4cnc([C@@H]5CCCN5C(=O)[C@H](c5ccccc5)N(C)C)[nH]4)cc3)cc2[nH]1)C(C)C` [Compound 864] was run?
**A.** < 1 nM

**Q.** For `CC(C)[C@H](NC(=O)N1CC[C@H](O)C1)C(=O)N1CCC[C@H]1c1ncc(-c2ccc(C#Cc3ccc(-c4cnc([C@@H]5CCCN5C(=O)[C@@H](NC(=O)N5CC[C@H](O)C5)C(C)C)[nH]4)cc3)cc2)[nH]1` [Compound 988], which EC50 is on record?
**A.** 10 to 999 nM

**Q.** `COC(=O)N[C@H](C(=O)N1CCC[C@H]1c1ncc(-c2ccc(C#Cc3ccc(-c4cnc([C@@H]5CCCN5C(=O)[C@@H](c5ccccc5)N5CCCCC5)[nH]4)cc3)cc2)[nH]1)C(C)C` [Compound 986] was tested. Which EC50 did it give?
**A.** < 1 nM

**Q.** For `COC(=O)N[C@H](C(=O)N1CCC[C@H]1c1nc2c([nH]1)-c1ccc(C#Cc3ccc(-c4cnc([C@@H]5CCCN5C(=O)[C@H](NC(=O)OC)c5ccccc5)[nH]4)cc3F)cc1CC2)C(C)C` [Compound 1098], which EC50 is on record?
**A.** < 1 nM

**Q.** Which EC50 does the source give for `COC(=O)N[C@H](C(=O)N1CCC[C@H]1c1ncc(-c2ccc(C#Cc3ccc(-c4cnc([C@@H]5CCCN5C(=O)[C@@H](NC5CCOCC5)C(C)C)[nH]4)cc3)cc2)[nH]1)C(C)C` [Compound 1001] here?
**A.** 1 to 9.9 nM

**Q.** How did the EC50 turn out when `COC(=O)N[C@H](C(=O)N1CCCC[C@H]1c1ncc(-c2ccc(C#Cc3ccc4nc([C@@H]5CCCN5C(=O)[C@@H](NC(=O)OC)C(C)C)[nH]c4c3)cc2)[nH]1)C(C)C` [Compound 1032] was run?
**A.** < 1 nM

**Q.** For `O=C(N[C@@H](C(=O)N1CCC[C@H]1c1ncc(-c2ccc(C#Cc3ccc(-c4cnc([C@@H]5CCCN5C(=O)[C@H](NC(=O)N5CCC(O)CC5)c5ccccc5)[nH]4)cc3)cc2)[nH]1)c1ccccc1)N1CCC(O)CC1` [Compound 251], which EC50 is on record?
**A.** < 1 nM

**Q.** Which EC50 does the source give for `COC(=O)N[C@@H](C(=O)N1CCC[C@H]1c1ncc(-c2ccc(C#Cc3ccc(-c4cnc([C@@H]5CCCN5C(=O)[C@H](NC(=O)N5CC[C@@H](OC)C5)c5ccccc5)[nH]4)cc3)cc2)[nH]1)c1ccccc1` [Compound 271] here?
**A.** < 1 nM

**Q.** `CC(C)[C@H](NC(=O)N1CCOCC1)C(=O)N1CCC[C@H]1c1ncc(-c2ccc(C#Cc3ccc(-c4cnc([C@@H]5CCCN5C(=O)[C@@H](NC(=O)N5CCOCC5)C(C)C)[nH]4)cc3)cc2)[nH]1` [Compound 285] was tested. Which EC50 did it give?
**A.** > 1000 nM

**Q.** With `COC(=O)N[C@H](C(=O)N1CCC[C@H]1c1nc2ccc(-c3ccc(C#Cc4cnc([C@@H]5CCCN5C(=O)[C@H](NC(=O)OC)c5ccccc5)[nH]4)cc3)cc2[nH]1)C(C)C` [Compound 1085] as the compound, how does the EC50 read?
**A.** < 1 nM

**Q.** `COC(=O)N[C@H](C(=O)N1CCC[C@H]1c1nc2c([nH]1)-c1ccc(C#Cc3ccc4nc([C@@H]5CCCN5C(=O)[C@@H](NC(=O)OC)C(C)C)[nH]c4c3)cc1CC2)C(C)C` [Compound 1101] was tested. Which EC50 did it give?
**A.** < 1 nM

**Q.** With `COC(=O)N[C@@H](C(=O)N1CCC[C@H]1c1ncc(-c2ccc(C#Cc3ccc(-c4cnc([C@@H]5CCCN5C(=O)[C@H](NC(=O)OC)C(C)C)[nH]4)cc3)cc2)[nH]1)C(C)C` [Compound 292] as the compound, how does the EC50 read?
**A.** > 1000 nM

**Q.** For `COC(=O)N[C@@H](C(=O)N1CCC[C@H]1c1ncc(-c2ccc(C#Cc3ccc(C(=O)NC[C@@H]4CCCN4C(=O)[C@@H](c4ccccc4)N4CCCCC4)cc3)cc2)[nH]1)c1ccccc1` [Compound 233], which EC50 is on record?
**A.** < 1 nM

**Q.** `CN(C)C(=O)N[C@@H](C(=O)N1CCC[C@H]1c1cc(-c2ccc(C#Cc3ccc(-c4cnc([C@@H]5CCCN5C(=O)[C@H](NC(=O)N(C)C)c5ccccc5)[nH]4)cc3)cc2)n[nH]1)c1ccccc1` [Compound 221] was tested. Which EC50 did it give?
**A.** < 1 nM

**Q.** Which EC50 does the source give for `O=C(N[C@@H](C(=O)N1CCC[C@H]1c1nc(-c2ccc3cc(C#Cc4cnc([C@@H]5CCCN5C(=O)[C@H](NC(=O)C5CC5)c5ccccc5)[nH]4)ccc3c2)c[nH]1)c1ccccc1)C1CC1` [Compound 804] here?
**A.** < 1 nM

**Q.** With `COC(=O)N[C@H](C(=O)N1CCC[C@H]1c1ncc(-c2ccc(C#Cc3ccc(-c4cnc([C@@H]5CCCN5C(=O)[C@@H](c5ccccc5)N5CCCC5)[nH]4)cc3)cc2)[nH]1)C(C)C` [Compound 984] as the compound, how does the EC50 read?
**A.** < 1 nM

**Q.** `CS(=O)(=O)N[C@@H](C(=O)N1CCC[C@H]1c1ncc(-c2ccc(C#Cc3ccc(-c4cnc([C@@H]5CCCN5C(=O)[C@@H](c5ccccc5)N5CCOCC5)[nH]4)cc3)cc2)[nH]1)c1ccccc1` [Compound 232] was tested. Which EC50 did it give?
**A.** < 1 nM

**Q.** `COC(=O)N[C@H](C(=O)N1CCC[C@H]1c1ncc(-c2ccc(C#Cc3ccc4nc([C@@H]5CCCN5C(=O)[C@@H](NC(=O)OC)C(C)(C)C)[nH]c4c3)cc2)[nH]1)C(C)(C)C` [Compound 1041] was tested. Which EC50 did it give?
**A.** < 1 nM

**Q.** For `COC(=O)N[C@@H](C(=O)N1CCC[C@H]1c1ncc(-c2ccc(C#Cc3ccc(-c4cnc([C@@H]5CCCN5C(=O)[C@H](NC(=O)N5CCC[C@H]5C)c5ccccc5)[nH]4)cc3)cc2)[nH]1)c1ccccc1` [Compound 262], which EC50 is on record?
**A.** < 1 nM

**Q.** How did the EC50 turn out when `CC(C)[C@@H](NC(=O)N1CCCC1)C(=O)N1CCC[C@H]1c1ncc(-c2ccc(C#Cc3ccc(-c4cnc([C@@H]5CCCN5C(=O)[C@H](NC(=O)N5CCCC5)C(C)C)[nH]4)cc3)cc2)[nH]1` [Compound 293] was run?
**A.** > 1000 nM

**Q.** How did the EC50 turn out when `COC(=O)N[C@@H](C(=O)N1CCC[C@H]1c1ncc(-c2ccc(C#Cc3ccc(-c4cnc([C@@H]5CCCN5C(=O)[C@H](NC(=O)N5CCC[C@@H]5CO)c5ccccc5)[nH]4)cc3)cc2)[nH]1)c1ccccc1` [Compound 254] was run?
**A.** < 1 nM

**Q.** For `CC(C)[C@H](NC(=O)N1CCNCC1)C(=O)N1CCC[C@H]1c1ncc(-c2ccc(C#Cc3ccc(-c4cnc([C@@H]5CCCN5C(=O)[C@@H](NC(=O)N5CCNCC5)C(C)C)[nH]4)cc3)cc2)[nH]1` [Compound 967], which EC50 is on record?
**A.** 10 to 999 nM

**Q.** For `COC(=O)N[C@H](C(=O)N1CC[C@H](O)[C@H]1c1ncc(-c2ccc(C#Cc3ccc4nc([C@@H]5CCCN5C(=O)[C@@H](NC(=O)OC)C(C)C)[nH]c4c3)cc2)[nH]1)C(C)C` [Compound 1068], which EC50 is on record?
**A.** < 1 nM

**Q.** For `CC(C)[C@H](NC(=O)N1CCC(C)(O)CC1)C(=O)N1CCC[C@H]1c1ncc(-c2ccc(C#Cc3ccc(-c4cnc([C@@H]5CCCN5C(=O)[C@@H](NC(=O)N5CCC(C)(O)CC5)C(C)C)[nH]4)cc3)cc2)[nH]1` [Compound 966], which EC50 is on record?
**A.** 10 to 999 nM

**Q.** How did the EC50 turn out when `CCN(CC)[C@@H](C(=O)N1CCC[C@H]1c1ncc(-c2ccc(C#Cc3ccc(-c4cnc([C@@H]5CCCN5C(=O)[C@H](NS(C)(=O)=O)c5ccccc5)[nH]4)cc3)cc2)[nH]1)c1ccccc1` [Compound 229] was run?
**A.** < 1 nM

**Q.** `COC(=O)N[C@H](C(=O)N1CCC[C@H]1c1ncc(-c2ccc(C#Cc3ccc(-c4cnc([C@@H]5CCCN5C(=O)[C@@H](c5ccccc5)N5CCC(O)CC5)[nH]4)cc3)cc2)[nH]1)C(C)C` [Compound 956] was tested. Which EC50 did it give?
**A.** < 1 nM

**Q.** Which EC50 does the source give for `COC(=O)N[C@@H](C(=O)N1CCC[C@H]1c1ncc(-c2ccc(C#Cc3ccc(C(=O)NC[C@@H]4CCCN4C(=O)[C@@H](c4ccccc4)N(C)C)cc3)cc2)[nH]1)c1ccccc1` [Compound 234] here?
**A.** < 1 nM

**Q.** Which EC50 does the source give for `COC(=O)N[C@@H](Cc1c[nH]c2ccccc12)C(=O)N1CCC[C@H]1c1ncc(-c2ccc(C#Cc3ccc4nc([C@@H]5CCCN5C(=O)[C@H](Cc5c[nH]c6ccccc56)NC(=O)OC)[nH]c4c3)cc2)[nH]1` [Compound 1057] here?
**A.** < 1 nM

**Q.** For `COC(=O)N[C@H](C(=O)N1C[C@H](F)C[C@H]1c1ncc(-c2ccc(C#Cc3ccc4nc([C@@H]5CCCN5C(=O)[C@@H](NC(=O)OC)C(C)C)[nH]c4c3)cc2)[nH]1)C(C)C` [Compound 1040], which EC50 is on record?
**A.** < 1 nM

**Q.** With `CN(C)[C@@H](C(=O)N1CCC[C@H]1c1ncc(-c2ccc(C#Cc3ccc(-c4cnc([C@@H]5CCCN5C(=O)[C@@H](c5ccccc5)N(C)C)[nH]4)cc3)cc2)[nH]1)c1ccccc1` [Compound 160] as the compound, how does the EC50 read?
**A.** < 1 nM

Same assay, conditions: Hepatitis C virus, Huh-7, read-out: Inhibition of HCV genotype 1b

**Q.** Which EC50 does the source give for `COC(=O)N[C@H](C(=O)N1CCC[C@H]1c1ncc(-c2ccc(C#Cc3ccc(-c4cnc([C@@H]5CCCN5C(=O)[C@@H](NC(=O)OC)C5CCOCC5)[nH]4)cc3)cc2)[nH]1)C1CCOCC1` [Compound 1218] here?
**A.** < 1 nM

**Q.** How did the EC50 turn out when `COC(=O)N[C@H](C(=O)N[C@@H](C)c1ncc(-c2ccc(C#Cc3ccc4nc([C@@H]5CCCN5C(=O)[C@@H](NC(=O)OC)C(C)C)[nH]c4c3)cc2)[nH]1)C(C)C` [Compound 1225] was run?
**A.** < 1 nM

**Q.** With `COC(=O)N[C@H](C(=O)N1CCC[C@H]1c1ncc(-c2ccc3cc(C#Cc4[nH]c([C@@H]5CCCN5C(=O)[C@@H](NC(=O)OC)C5CCCC5)nc4C(F)(F)F)ccc3c2)[nH]1)C1CCCC1` [Compound 1254] as the compound, how does the EC50 read?
**A.** < 1 nM

**Q.** How did the EC50 turn out when `COC(=O)NC(C(=O)N1CCC[C@H]1c1nc2ccc(C#Cc3ccc4cc(-c5cnc([C@@H]6CCCN6C(=O)[C@@H](NC(=O)OC)C6CCOCC6)[nH]5)ccc4n3)cc2[nH]1)C(C)C` (some centres unmarked) [Compound 1290] was run?
**A.** < 1 nM

**Q.** Which EC50 does the source give for `COC(=O)N[C@H](C(=O)N1CCC[C@H]1c1ncc(-c2ccc(C#Cc3ccc4c(ccc5nc([C@@H]6CCCN6C(=O)[C@@H](NC(=O)OC)[C@@H](C)OC)[nH]c54)c3)cc2)[nH]1)C(C)C` [Compound 1271] here?
**A.** < 1 nM

**Q.** Which EC50 does the source give for `COC(=O)N[C@H](C(=O)N1CCN(C(C)=O)C[C@H]1c1ncc(-c2ccc(C#Cc3ccc4nc([C@@H]5CCCN5C(=O)[C@@H](NC(=O)OC)C(C)C)[nH]c4c3)cc2)[nH]1)C(C)C` [Compound 1232] here?
**A.** < 1 nM

**Q.** For `COC(=O)N[C@H](C(=O)N1CCC[C@H]1c1ncc(-c2ccc3cc(C#Cc4[nH]c([C@@H]5CCCN5C(=O)[C@@H](NC(=O)OC)C5CCOCC5)nc4C(F)(F)F)ccc3c2)[nH]1)C1CCOCC1` [Compound 1256], which EC50 is on record?
**A.** < 1 nM

**Q.** `COC(=O)N[C@H](C(=O)N1CCC[C@H]1c1ncc(-c2ccc(C#Cc3ccc4c(ccc5nc([C@@H]6CCCN6C(=O)[C@@H](NC(=O)OC)C6CCOCC6)[nH]c54)c3)cc2)[nH]1)C(C)C` [Compound 1272] was tested. Which EC50 did it give?
**A.** < 1 nM
